{
  "source": "patent US8158106B2",
  "about": "“Particle immobilized coatings and uses thereof” (Surmodics, Inc., priority 2001, dated 2012)",
  "key": {"[1]": {"test": "Entrapment of microparticles disposed on pre-irradiated photopolymer matrix spots, presence after washes", "type": "physicochemical", "settings": "9.9 μm silica microparticles disposed on irradiated spots, compound 2.5 mg/ml", "description": "Different polymeric materials were used to immobilize microparticles on a substrate. First, different polymers were disposed and treated on a substrate to form matrices. This was followed by disposing the microparticles on the substrates which were immobilized via the matrices. Four different photoreactive polymers were used to immobilize 9.9 μm diameter silica microparticles on substrates. […] Pat. No. 5,714,360 to Swan et al., issued Feb., 3, 1998, commonly owned by the assignee of the present invention, the disclosure of which is incorporated herein in its entirety), a non-polymeric photoreactive compound, was evaluated. […] Each solution was printed with 25 gauge disposable needles (PrecisionGlide Needles, Becton Dickinson and Co., Franklin Lakes, N.J.) and an x-y programmable stage (CAMM-3, Roland Digital Group, Irvine, Calif.) onto glass microscope slides which had been functionalized with silanes, as in Example 1, and onto acrylic slides (Cadillac Plastics, Minneapolis, Minn.). This printing forms a pattern of approximately 300-400 μm diameter spots on the substrates. The patterned slides were irradiated for two minutes with ultraviolet light as detailed in Example 1. After irradiation, 500 μl of an aqueous solution of 2 mg/ml 9.9 μm diameter silica microparticles (S[…], Bangs Laboratories, Fisher, Ind.) was placed over the patterned area for one minute to allow the microparticles to associate and become entrapped in the polymer matrices. The slides were then rinsed with 0.1% v/v Tween-20 aqueous solution to remove any free microparticles. Following this, the array was washed to remove loosely bound microspheres. The array was washed three times with 1×PBS (pH 7.4) with 0.1% v/v Tween-20, and then rinsed with deionized water. […] After imaging, the arrays were incubated in a solution of 0.1M TRIS and 50 mM ethanolamine (T/E) wash buffer for 1 hour at 50° C., followed by two rinses with deionized water. The microarrays were then incubated in a solution of 4×SSC/0.1% SDS for two hours at 50° C. and rinsed in deionized water. This was the final step at which imaging was done to evaluate the respective polymers."}, "[2]": {"test": "Printed slurries of photoreactive compound and microparticles, presence after washes", "type": "physicochemical", "settings": "slurry of 2.5 mg/ml compound and 20 mg/ml 9.9 μm silica microspheres printed, then irradiated", "procedure": "Slurries were prepared, each containing different polymers and microparticles. These slurries were then disposed on a substrate and treated to form matrices in which microparticles were immobilized. Different polymeric materials were used to immobilize microparticles on a substrate. Four different photoreactive polymers were used to immobilize 9.9 μm diameter silica microparticles on substrates: […] BBDQ (as described in Example 4) a non-polymeric photoreactive material was also used in this Example. […] Each mixture was printed with 25 gauge disposable needles (PrecisionGlide Needles, Becton Dickinson and Co., Franklin Lakes, N.J.) and an x-y programmable stage (CAMM-3, Roland Digital Group, Irvine, Calif.) onto glass microscope slides which had been functionalized with silanes, as detailed in Example 1 and onto acrylic slides (Cadillac Plastics, Minneapolis, Minn.). This printing forms a pattern of approximately 300-400 μm diameter spots on the substrates. The coated substrates were irradiated for two minutes with ultraviolet light as detailed in Example 1. The coated substrates were then imaged with a fluorescence microscope (Olympus BX 60, Tokyo, Japan), to ensure that patterning was successful. Following this, the coated substrate was washed to remove any loosely bound microspheres. The coated substrates were washed three times with 1×PBS (pH 7.4) with 0.1% v/v Tween-20, rinsed with deionized water. At this point, each was again imaged with the fluorescence microscope to determine microsphere loss in the various photoreactive polymer matrices. After imaging, the coated substrates were incubated in a solution of T/E wash buffer for 1 hour at 50° C., followed by two rinses with deionized water. The coated substrates were then incubated in a solution of 4×SSC/0.1% SDS for two hours at 50° C. and rinsed in deionized water."}},
  "data": [
    {"compound": "C[N+](C)(CC[N+](C)(C)Cc1ccc(C(=O)c2ccccc2)cc1)Cc1ccc(C(=O)c2ccccc2)cc1.[Br-].[Br-]", "note": "[BBDQ, ethylene(4-benzoylbenzyldimethylammonium)dibromide]", "values": [
      {"measurement": "Presence of microparticles after PBS-Tween wash", "setting": "[1]; Acrylic substrate", "result": "Some loss"},
      {"measurement": "Presence of microparticles after high salt wash (4X SSC)", "setting": "[1]; Acrylic substrate", "result": "Complete loss"},
      {"measurement": "Presence of microparticles before washes", "setting": "[1]; Acrylic substrate", "result": "Present"},
      {"measurement": "Presence of microparticles after PBS-Tween wash", "setting": "[1]; Glass substrate", "result": "Some loss"},
      {"measurement": "Presence of microparticles after high salt wash (4X SSC)", "setting": "[1]; Glass substrate", "result": "Complete loss"},
      {"measurement": "Presence of microparticles before washes", "setting": "[1]; Glass substrate", "result": "Present"},
      {"measurement": "Presence of microparticles after PBS-Tween wash", "setting": "[2]; Acrylic substrate", "result": "No loss"},
      {"measurement": "Presence of microparticles after high salt wash (4X SSC)", "setting": "[2]; Acrylic substrate", "result": "Complete loss"},
      {"measurement": "Presence of microparticles before washes", "setting": "[2]; Acrylic substrate", "result": "Present"},
      {"measurement": "Presence of microparticles after PBS-Tween wash", "setting": "[2]; Glass substrate", "result": "No loss"},
      {"measurement": "Presence of microparticles after high salt wash (4X SSC)", "setting": "[2]; Glass substrate", "result": "Complete loss"},
      {"measurement": "Presence of microparticles before washes", "setting": "[2]; Glass substrate", "result": "Present"}
    ]}
  ]
}
